# Like-named read-outs stand apart in the source and are kept apart here.
# What was measured:
# [1] = system: non-expressing oocytes; assay: cells; format: cell-based, Xenopus laevis; conditions: for inhibition at 500 µM / inhibition at 1000 µM / inhibition at 2000 µM: Xenopus laevis, Oocyte; for Uptake of [3H]CQ (% non-expressing oocyte control), cis-inhibition: non-expressing oocytes, normalised to the oocyte type control; for Uptake of [3H]CQ (% non-expressing oocyte control), cis-inhibition / Uptake of [3H]CQ (% PfCRTDd2 control), cis-inhibition, non-expressing oocytes: total [3H]CQ transport; for Uptake of [3H]CQ (% PfCRTDd2 control), cis-inhibition, non-expressing oocytes: mean ± SEM
# In short: (§1)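 Using pH 5.5 ND96 at 27.5 °C, uptake is followed for 1.5 h, stopped with ice-cold buffer, and quantified as accumulated radioactivity per oocyte after SDS lysis.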
# [2] = biological target: T1, PfCRT^3D7 (Plasmodium falciparum, UniProt Q8IBZ9); assay: cell-based; format: cell-based; conditions: for Uptake of [3H]CQ (% PfCRTDd2 control), cis-inhibition, PfCRT3D7: mean ± SEM
# T1 sequence (Q8IBZ9 59-398): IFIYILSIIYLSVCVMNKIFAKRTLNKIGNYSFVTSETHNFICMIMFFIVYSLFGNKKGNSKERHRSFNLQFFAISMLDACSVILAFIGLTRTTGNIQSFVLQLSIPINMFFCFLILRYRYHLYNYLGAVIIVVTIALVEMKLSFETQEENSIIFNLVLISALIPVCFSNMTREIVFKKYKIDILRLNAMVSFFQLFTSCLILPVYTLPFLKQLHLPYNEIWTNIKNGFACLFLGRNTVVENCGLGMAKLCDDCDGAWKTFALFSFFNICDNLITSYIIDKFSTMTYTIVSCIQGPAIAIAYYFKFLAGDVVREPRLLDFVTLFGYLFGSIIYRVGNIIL
# In short: as §1
# [3] = biological target: PfCRT^Dd2 (Plasmodium falciparum, UniProt Q9N623, A220S/I356T/K76T/M74I/N326S/N75E/Q271E/R371I); assay: [3H]CQ uptake into Xenopus oocytes, cis-inhibition by unlabelled solute; format: cell-based; conditions: for PfCRT-mediated [3H]CQ transport, cis-inhibition (% PfCRTDd2 control): PfCRTDd2 oocytes, background [3H]CQ accumulation subtracted, normalised to oocyte type control; for Uptake of [3H]CQ (% PfCRTDd2 control), cis-inhibition, PfCRTDd2: total [3H]CQ transport, mean ± SEM
# Sequence of PfCRT^Dd2 (Q9N623 whole entry A220S/I356T/K76T/M74I/N326S/N75E/Q271E/R371I): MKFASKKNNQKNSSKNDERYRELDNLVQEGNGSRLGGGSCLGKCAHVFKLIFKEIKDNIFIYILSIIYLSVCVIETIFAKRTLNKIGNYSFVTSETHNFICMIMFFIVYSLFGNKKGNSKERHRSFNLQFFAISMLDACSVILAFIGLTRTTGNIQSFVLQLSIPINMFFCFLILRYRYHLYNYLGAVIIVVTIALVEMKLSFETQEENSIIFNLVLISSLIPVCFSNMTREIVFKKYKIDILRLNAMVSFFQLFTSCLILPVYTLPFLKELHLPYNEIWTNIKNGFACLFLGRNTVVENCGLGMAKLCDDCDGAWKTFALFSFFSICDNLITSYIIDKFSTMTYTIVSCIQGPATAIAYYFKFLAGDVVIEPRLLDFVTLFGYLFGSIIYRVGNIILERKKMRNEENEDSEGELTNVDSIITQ
# In short: as §1
# [4] = biological target: PfCRT^Ecu1110 (Plasmodium falciparum, UniProt Q9N623, A220S/I356L/K76T/N326D); assay: as above; format: cell-based; conditions: for Uptake of [3H]CQ (% PfCRTEcu1110 control), cis-inhibition / PfCRT-mediated [3H]CQ transport, cis-inhibition (% PfCRTEcu1110 control): PfCRTEcu1110 oocytes; for Uptake of [3H]CQ (% PfCRTEcu1110 control), cis-inhibition / Uptake of [3H]CQ (% PfCRTDd2 control), cis-inhibition, PfCRTEcu1110: total [3H]CQ transport; for Uptake of [3H]CQ (% PfCRTEcu1110 control), cis-inhibition: normalised to the oocyte type control; for PfCRT-mediated [3H]CQ transport, cis-inhibition (% PfCRTEcu1110 control): background [3H]CQ accumulation subtracted, normalised to oocyte type control; for [3H]CQ transport (% PfCRTEcu1110 control), cis-inhibition, PfCRTEcu1110: PfCRT-mediated component (background subtracted), sheet title says normalised to PfCRTDd2 control; for [3H]CQ transport (% PfCRTEcu1110 control), cis-inhibition, PfCRTEcu1110 / Uptake of [3H]CQ (% PfCRTDd2 control), cis-inhibition, PfCRTEcu1110: mean ± SEM
# Sequence of PfCRT^Ecu1110 (Q9N623 whole entry A220S/I356L/K76T/N326D): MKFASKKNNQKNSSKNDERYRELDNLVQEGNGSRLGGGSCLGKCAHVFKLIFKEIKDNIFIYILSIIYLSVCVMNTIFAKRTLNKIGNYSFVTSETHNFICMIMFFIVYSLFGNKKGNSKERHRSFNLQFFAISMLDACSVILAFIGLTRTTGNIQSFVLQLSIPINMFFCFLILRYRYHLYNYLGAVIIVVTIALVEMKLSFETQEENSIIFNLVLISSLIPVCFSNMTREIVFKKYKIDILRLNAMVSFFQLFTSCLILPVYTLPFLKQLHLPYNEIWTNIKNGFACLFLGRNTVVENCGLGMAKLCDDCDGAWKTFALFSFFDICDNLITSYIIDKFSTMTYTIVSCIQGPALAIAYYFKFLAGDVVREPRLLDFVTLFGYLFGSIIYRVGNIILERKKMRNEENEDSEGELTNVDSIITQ
# In short: as §1
# [5] = system: non-expressing oocytes; format: cell-based, Xenopus laevis; conditions: SEM
# In short: (§2)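 Oocytes (ten per treatment, ≥4 independent frogs/days) were preloaded by injecting VF-6 in 25 nL ND96 at pH 5.0, 5.5, 6.0 or 7.0, or Na^+-free choline buffer, then uptake run 1.5 h, 27.5 °C, ND96 pH 5.5 by default. Internal concentrations assumed ~400 nL oocyte volume.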
# [6] = biological target: T1, PfCRT^3D7; assay: cell-based; format: cell-based; conditions: SEM
# In short: as §2
# [7] = biological target: T2, PfNT1 (Plasmodium falciparum, UniProt Q8IDM6); assay: cell-based; format: cell-based; conditions: SEM
# T2 construct: expressed in transfected cells; host or cells: Xenopus laevis oocytes (stage V-VI), cRNA-injected
# T2 sequence (Q8IDM6 whole entry): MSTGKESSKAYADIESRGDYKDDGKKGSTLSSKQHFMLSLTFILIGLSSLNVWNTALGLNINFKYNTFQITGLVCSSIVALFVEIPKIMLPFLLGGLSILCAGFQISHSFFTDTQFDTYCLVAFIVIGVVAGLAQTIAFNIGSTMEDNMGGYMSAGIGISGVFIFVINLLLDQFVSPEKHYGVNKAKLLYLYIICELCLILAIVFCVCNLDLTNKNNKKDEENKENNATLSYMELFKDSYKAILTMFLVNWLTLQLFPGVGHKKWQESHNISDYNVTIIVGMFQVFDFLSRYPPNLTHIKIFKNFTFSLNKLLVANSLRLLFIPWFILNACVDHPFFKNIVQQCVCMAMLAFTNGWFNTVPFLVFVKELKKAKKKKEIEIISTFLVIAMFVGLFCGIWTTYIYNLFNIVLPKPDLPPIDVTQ
# In short: as §2
# [8] = system: PfCRT; assay: Influx of VF-6 via PfCRT into the oocyte, solutes tested as potential co-substrates; format: cell-based, Plasmodium falciparum; set-up: key: X: Compounds that have been tested as potential co-substrates but are not required for influx of VF-6 via PfCRT into the oocyte; conditions: X marks the solute
# [9] = system: PfCRT; assay: Test of solutes as potential co-substrates for influx of VF-6 via PfCRT into the oocyte; format: cell-based, Plasmodium falciparum; set-up: key: X: Compounds that have been tested as potential co-substrates but are not required for influx of VF-6 via PfCRT into the oocyte; conditions: X = tested
# [10] = system: PfCRT; assay: Potential co-substrates tested for influx of VF-6 via PfCRT into the oocyte; format: cell-based, Plasmodium falciparum; set-up: key: X: Compounds that have been tested as potential co-substrates but are not required for influx of VF-6 via PfCRT into the oocyte
# [11] = read-out: Uptake of [3H]CQ (% PfCRTDd2 control), cis-inhibition, non-expressing oocytes, SEM
# [12] = read-out: Uptake of [3H]CQ (% non-expressing oocyte control), cis-inhibition
# [13] = read-out: Uptake of [3H]CQ (% PfCRTDd2 control), cis-inhibition, PfCRT3D7, SEM
# [14] = read-out: PfCRT-mediated [3H]CQ transport, cis-inhibition (% PfCRTDd2 control)
# [15] = read-out: PfCRT-mediated [3H]CQ transport, cis-inhibition (% PfCRTEcu1110 control)
# [16] = read-out: Uptake of [3H]CQ (% PfCRTDd2 control), cis-inhibition, PfCRTEcu1110, SEM
# [17] = read-out: Uptake of [3H]CQ (% PfCRTEcu1110 control), cis-inhibition
# [18] = read-out: [3H]CQ transport (% PfCRTEcu1110 control), cis-inhibition, PfCRTEcu1110, SEM
compound,measurement,setting,value
O=C(O)[C@@H]1CCCN1 [L-proline],inhibition at 500 µM,[1]; [11],2.8 ± 0.09%
same,inhibition at 1000 µM,[1]; [11],3.1 ± 0.03%
same,inhibition at 2000 µM,[1]; [11],3.4 ± 0.07%
same,inhibition at 500 µM,[1]; [12],99 ± 3.3%
same,inhibition at 1000 µM,[1]; [12],100 ± 3.5%
same,inhibition at 2000 µM,[1]; [12],97 ± 5.3%
same,inhibition at 500 µM,"[2]; read-out: Uptake of [3H]CQ (% PfCRT3D7 control), cis-inhibition",99 ± 6.2%
same,inhibition at 500 µM,[2]; [13],2.3 ± 0.01%
same,inhibition at 2000 µM,[2]; [13],2.6 ± 0.04%
same,inhibition at 500 µM,[3]; [14],95 ± 4.2%
same,inhibition at 1000 µM,[3]; [14],96 ± 3.2%
same,inhibition at 1000 µM,"[3]; read-out: Uptake of [3H]CQ (% PfCRTDd2 control), cis-inhibition, PfCRTDd2, SEM",98 ± 4.8%
same,inhibition at 500 µM,[4]; [15],98 ± 4.6%
same,inhibition at 1000 µM,[4]; [15],94 ± 3.6%
same,inhibition at 2000 µM,[4]; [15],95 ± 2.6%
same,inhibition at 500 µM,[4]; [16],33 ± 1.4%
same,inhibition at 1000 µM,[4]; [16],31 ± 1.5%
same,inhibition at 2000 µM,[4]; [16],32 ± 1.4%
same,inhibition at 500 µM,[4]; [17],100 ± 7.7%
same,inhibition at 1000 µM,[4]; [17],96 ± 8.1%
same,inhibition at 2000 µM,[4]; [17],96 ± 4.3%
same,inhibition at 500 µM,[4]; [18],30 ± 1.4%
same,inhibition at 1000 µM,[4]; [18],28 ± 0.6%
same,inhibition at 2000 µM,[4]; [18],29 ± 1.4%
same,"Uptake of [3H]CQ (% PfCRTDd2 control), trans-stimulation, non-expressing oocytes",[5],2.6 ± 0.08 % PfCRTDd2 control
same,"[3H]CQ transport (% PfCRT3D7 control), trans-stimulation, PfCRT3D7",[6],0.2 ± 0.02 % PfCRT3D7 control
same,activity at 5000 µM,"[7]; […], read-out: Uptake of [3H]CQ (% PfCRTDd2 control), trans-stimulation, PfNT1",3.1 ± 0.08%
same,Compounds that have been tested as potential co-substrates but are not required for influx of VF-6 via PfCRT into the oocyte,[8],X
same,Tested as potential co-substrate but not required for influx of VF-6 via PfCRT into the oocyte,[9],X
same,Tested as potential co-substrate but not required for influx of VF-6 via PfCRT into the oocyte,[10],X
N[C@@H](CC(=O)O)C(=O)O [L-aspartatic acid],"Uptake of [3H]CQ (% non-expressing oocyte control), cis-inhibition",[1]; [test solute] = 0.5 mM,101 ± 4.8 % non-expressing oocyte control
same,"Uptake of [3H]CQ (% non-expressing oocyte control), cis-inhibition",[1]; [test solute] = 1 mM,97 ± 6.3 % non-expressing oocyte control
same,"Uptake of [3H]CQ (% non-expressing oocyte control), cis-inhibition",[1]; [test solute] = 2 mM,100 ± 4.6 % non-expressing oocyte control
same,"Uptake of [3H]CQ (% PfCRTDd2 control), cis-inhibition, non-expressing oocytes","[1]; [test solute] = 0.5 mM, SEM",3.9 ± 0.03 % PfCRTDd2 control
same,"Uptake of [3H]CQ (% PfCRTDd2 control), cis-inhibition, non-expressing oocytes","[1]; [test solute] = 1 mM, SEM",3.2 ± 0.08 % PfCRTDd2 control
same,"Uptake of [3H]CQ (% PfCRTDd2 control), cis-inhibition, non-expressing oocytes","[1]; [test solute] = 2 mM, SEM",3.4 ± 0.1 % PfCRTDd2 control
same,"Uptake of [3H]CQ (% PfCRT3D7 control), cis-inhibition","[2]; PfCRT3D7 oocytes, [test solute] = 2 mM, total [3H]CQ transport, normalised to the oocyte type control",100 ± 3.5 % PfCRT3D7 control
same,"Uptake of [3H]CQ (% PfCRTDd2 control), cis-inhibition, PfCRT3D7","[2]; total [3H]CQ transport, [test solute] = 0.5 mM, SEM",3.1 ± 0.07 % PfCRTDd2 control
same,"Uptake of [3H]CQ (% PfCRTDd2 control), cis-inhibition, PfCRT3D7","[2]; total [3H]CQ transport, [test solute] = 1 mM, SEM",2.6 ± 0.08 % PfCRTDd2 control
same,"Uptake of [3H]CQ (% PfCRTDd2 control), cis-inhibition, PfCRT3D7","[2]; total [3H]CQ transport, [test solute] = 2 mM, SEM",2.2 ± 0.06 % PfCRTDd2 control
same,"PfCRT-mediated [3H]CQ transport, cis-inhibition (% PfCRTDd2 control)",[3]; [test solute] = 0.5 mM,90 ± 5.7 % PfCRTDd2 control
same,"PfCRT-mediated [3H]CQ transport, cis-inhibition (% PfCRTDd2 control)",[3]; [test solute] = 1 mM,87 ± 6.1 % PfCRTDd2 control
same,"PfCRT-mediated [3H]CQ transport, cis-inhibition (% PfCRTDd2 control)",[3]; [test solute] = 2 mM,73 ± 3.7 % PfCRTDd2 control
same,"Uptake of [3H]CQ (% PfCRTDd2 control), cis-inhibition, PfCRTDd2","[3]; [test solute] = 0.5 mM, SEM",93 ± 3.6 % PfCRTDd2 control
same,"Uptake of [3H]CQ (% PfCRTDd2 control), cis-inhibition, PfCRTDd2","[3]; [test solute] = 1 mM, SEM",89 ± 5.2 % PfCRTDd2 control
same,"Uptake of [3H]CQ (% PfCRTDd2 control), cis-inhibition, PfCRTDd2","[3]; [test solute] = 2 mM, SEM",75 ± 4.6 % PfCRTDd2 control
same,"Uptake of [3H]CQ (% PfCRTEcu1110 control), cis-inhibition",[4]; [test solute] = 0.5 mM,94 ± 4.5 % PfCRTEcu1110 control
same,"Uptake of [3H]CQ (% PfCRTEcu1110 control), cis-inhibition",[4]; [test solute] = 1 mM,90 ± 3.6 % PfCRTEcu1110 control
same,"Uptake of [3H]CQ (% PfCRTEcu1110 control), cis-inhibition",[4]; [test solute] = 2 mM,83 ± 4.3 % PfCRTEcu1110 control
same,"PfCRT-mediated [3H]CQ transport, cis-inhibition (% PfCRTEcu1110 control)",[4]; [test solute] = 0.5 mM,92 ± 1.4 % PfCRTEcu1110 control
same,"PfCRT-mediated [3H]CQ transport, cis-inhibition (% PfCRTEcu1110 control)",[4]; [test solute] = 1 mM,88 ± 2.7 % PfCRTEcu1110 control
same,"PfCRT-mediated [3H]CQ transport, cis-inhibition (% PfCRTEcu1110 control)",[4]; [test solute] = 2 mM,80 ± 1.3 % PfCRTEcu1110 control
same,"[3H]CQ transport (% PfCRTEcu1110 control), cis-inhibition, PfCRTEcu1110","[4]; [test solute] = 0.5 mM, SEM",28 ± 0.7 % PfCRTEcu1110 control
same,"[3H]CQ transport (% PfCRTEcu1110 control), cis-inhibition, PfCRTEcu1110","[4]; [test solute] = 2 mM, SEM",24 ± 0.1 % PfCRTEcu1110 control
same,"Uptake of [3H]CQ (% PfCRTDd2 control), cis-inhibition, PfCRTEcu1110","[4]; [test solute] = 0.5 mM, SEM",31 ± 1.5 % PfCRTDd2 control
same,"Uptake of [3H]CQ (% PfCRTDd2 control), cis-inhibition, PfCRTEcu1110","[4]; [test solute] = 1 mM, SEM",30 ± 1.4 % PfCRTDd2 control
same,"Uptake of [3H]CQ (% PfCRTDd2 control), cis-inhibition, PfCRTEcu1110","[4]; [test solute] = 2 mM, SEM",27 ± 1.0 % PfCRTDd2 control
same,"Uptake of [3H]CQ (% PfCRTDd2 control), trans-stimulation, PfNT1",[7],2.4 ± 0.08 % PfCRTDd2 control
same,Compounds that have been tested as potential co-substrates but are not required for influx of VF-6 via PfCRT into the oocyte,[8],X
same,Tested as potential co-substrate but not required for influx of VF-6 via PfCRT into the oocyte,[9],X
same,Tested as potential co-substrate but not required for influx of VF-6 via PfCRT into the oocyte,[10],X
